# How the values were obtained:
# Assay in all cases: Antibacterial activity evaluation test, MIC by broth microdilution (CLSI)
# Type in all cases: cell-based
# [1] = test system: KPC-2-containing Klebsiella pneumoniae strain (Y-995)
# Procedure: (§1) The minimum inhibitory concentration (MIC) was measured according to the Clinical and Laboratory Standards Institute (CLSI) standard method by using the following broth microdilution method.
# (§2) As bacteria, a Pseudomonas aeruginosa strain ATCC27853, an AmpC-derepressed Pseudomonas aeruginosa mutant strain (S-3028), an IMP-1-containing Pseudomonas aeruginosa strain (S-2838), a VIM-2-containing Pseudomonas aeruginosa strain (S-3779), a GES-19 and GES-20-containing Pseudomonas aeruginosa strain (S-3759), a CTX-M-15-containing Escherichia coli strain (TK-1747), a KPC-2-containing Klebsiella pneumoniae strain (Y-995), an OXA-48-containing Klebsiella pneumoniae strain (Y-1062), and an NDM-1-containing Klebsiella pneumoniae strain (Y-1007) were used. The test bacterial cells that had been cultured overnight on a Mueller Hinton agar medium were scraped off, suspended at a density equivalent to 0.5 McFarland standard, and diluted 10-fold, thereby obtaining an inoculum. A cation-adjusted Mueller Hinton medium containing a test compound was inoculated with 0.005 mL of the inoculum, and the cells were cultured at 35° C. for 16 to 20 hours. The minimum drug concentration at which the growth of bacteria was not visually observed was defined as MIC (μg/mL).
# (§3) An antibacterial activity evaluation test was performed in the same manner as in Test Example 1.
# [2] = test system: CTX-M-15-containing Escherichia coli strain (TK-1747)
# Procedure: as §1, §2, §3
# [3] = test system: VIM-2-containing Pseudomonas aeruginosa strain (S-3779)
# Procedure: as §1, §2, §3
# [4] = test system: NDM-1-containing Klebsiella pneumoniae strain (Y-1007)
# Procedure: as §1, §2, §3
# [5] = test system: IMP-1-containing Pseudomonas aeruginosa strain (S-2838)
# Procedure: as §1, §2, §3
# [6] = test system: AmpC-derepressed Pseudomonas aeruginosa mutant strain (S-3028)
# Procedure: as §1, §2, §3
# [7] = test system: GES-19 and GES-20-containing Pseudomonas aeruginosa strain (S-3759)
# Procedure: as §1, §2, §3
# [8] = test system: OXA-48-containing Klebsiella pneumoniae strain (Y-1062)
# Procedure: as §1, §2, §3
# [9] = test system: Pseudomonas aeruginosa strain ATCC27853
# Procedure: as §1, §2, §3
# [10] = Pseudomonas aeruginosa, ATCC27853
Structure (SMILES),MIC ([1]; Klebsiella pneumoniae),MIC ([2]; Escherichia coli),MIC ([3]; Pseudomonas aeruginosa),MIC ([4]; Klebsiella pneumoniae),MIC ([5]; Pseudomonas aeruginosa),MIC ([6]; Pseudomonas aeruginosa),MIC ([7]; Pseudomonas aeruginosa),MIC ([8]; Klebsiella pneumoniae),"MIC [9, 10]",also measured
"CC(C)(O/N=C(\C(=O)N[C@@H]1C(=O)N2C[C@@](C(=O)O)(n3ncn(NC(=O)C(=O)c4ccc(O)c(O)c4Cl)c3=O)S[C@H]12)c1csc(N)n1)C(=O)O [Example 26, (3R,5R,6R)-6-((Z)-2-(2-aminothiazol-4-yl)-2-(((2-carboxypropan-2-yl)oxy)imino)acetamido)-3-(4-(2-(2-chloro-3,4-dihydroxyphenyl)-2-oxoacetamido)-5-oxo-4,5-dihydro-1H-1,2,4-triazol-1-yl)-7-oxo-4-thia-1-azabicyclo[3.2.0]heptane-3-carboxylic acid]",0.12 µg/mL,0.12 µg/mL,0.25 µg/mL,< 0.06 µg/mL,0.25 µg/mL,0.12 µg/mL,0.25 µg/mL,0.5 µg/mL,1 µg/mL,–
"Nc1nc(/C(=N/OC2(C(=O)O)CC2)C(=O)N[C@@H]2C(=O)N3C[C@@](C(=O)O)(N4CCN(NC(=O)CCNC(=O)C(=O)c5ccc(O)c(O)c5Cl)C4=O)S[C@H]23)c(Cl)s1 [Example 107, (3R,5R,6R)-6-((Z)-2-(2-amino-5-chlorothia-zol-4-yl)-2-((1-carboxy-cyclopropoxy)imino)-acetamido)-3-(3-(3-(2-(2-chloro-3,4-dihydroxy-phenyl)-2-oxoaceta-mido)proanamido)-2-oxoimidazolidin-1-yl)-7-oxo-4-thia-1-aza-bicyclo[3.2.0]heptane-3-carboxylic acid]",–,–,–,–,–,–,–,–,–,"MIC ([1]; Klebsiella pneumoniae Y-995, 35° C., 16 to 20 hours): 2 µg/mL; MIC ([2]; Escherichia coli TK-1747, 35° C., 16 to 20 hours): 0.25 µg/mL; MIC ([3]; Pseudomonas aeruginosa S-3779, 35° C., 16 to 20 hours): 0.25 µg/mL; MIC ([4]; Klebsiella pneumoniae Y-1007, 35° C., 16 to 20 hours): <0.06 µg/mL; MIC ([5]; Pseudomonas aeruginosa S-2838, 35° C., 16 to 20 hours): 0.5 µg/mL; MIC ([6]; Pseudomonas aeruginosa S-3028, 35° C., 16 to 20 hours): 2 µg/mL; MIC ([7]; Pseudomonas aeruginosa S-3759, 35° C., 16 to 20 hours): 0.5 µg/mL; MIC ([8]; Klebsiella pneumoniae Y-1062, 35° C., 16 to 20 hours): 0.25 µg/mL; MIC ([9]; Pseudomonas aeruginosa ATCC 27853, 35° C., 16 to 20 hours): 0.25 µg/mL"
"CC(C)(O/N=C(\C(=O)N[C@@H]1C(=O)N2C[C@@](C(=O)O)(N3CC(CNC(=O)c4ccc(O)c(O)c4Cl)OC3=O)S[C@H]12)c1csc(N)n1)C(=O)O (stereo partly drawn) [Example 73, (3R,5R,6R)-6-((Z)-2-(2-aminothiazol-4-yl)-2-(((2-carboxypropan-2-yl)oxy)imino)acetamido)-3-(5-((2-chloro-3,4-dihydroxybenzamido)methyl)-2-oxooxazolidin-3-yl)-7-oxo-4-thia-1-azabicyclo[3.2.0]heptane-3-carboxylic acid]",16 µg/mL,0.25 µg/mL,1 µg/mL,0.12 µg/mL,0.5 µg/mL,0.25 µg/mL,0.5 µg/mL,1 µg/mL,0.5 µg/mL,–
"CC(C)(O/N=C(\C(=O)N[C@@H]1C(=O)N2C[C@@](C(=O)O)(N3CC[C@H](NC(=O)C(=O)c4ccc(O)c(O)c4Cl)C3=O)S[C@H]12)c1csc(N)n1)C(=O)O [Example 84, (3R,5R,6R)-6-((Z)-2-(2-aminothiazol-4-yl)-2-(((2-carboxypropan-2-yl)oxy)imino)acetamido)-3-((S)-3-(2-(2-chloro-3,4-dihydroxyphenyl)-2-oxoacetamido)-2-oxopyrrolidin-1-yl)-7-oxo-4-thia-1-azabicyclo[3.2.0]heptane-3-carboxylic acid]",0.5 µg/mL,< 0.06 µg/mL,0.5 µg/mL,< 0.06 µg/mL,0.5 µg/mL,0.5 µg/mL,1 µg/mL,< 0.06 µg/mL,0.5 µg/mL,–
CC(C)(O/N=C(\C(=O)NC1C(=O)N2C[C@@](C(=O)O)(N3CCC[C@H](NC(=O)C(=O)c4ccc(O)c(O)c4Cl)C3=O)S[C@H]12)c1csc(N)n1)C(=O)O (stereo partly drawn) [Example 156],–,–,–,–,–,–,–,–,–,"Antibacterial activity (MIC) Klebsiella pneumoniae Y-995 ([1]; Klebsiella pneumoniae Y-995): 0.12 µg/mL; Antibacterial activity (MIC) Escherichia coli TK-1747 ([2]; Escherichia coli TK-1747): 0.12 µg/mL; Antibacterial activity (MIC) Pseudomonas aeruginosa S-3779 ([3]; Pseudomonas aeruginosa S-3779): 1 µg/mL; Antibacterial activity (MIC) Klebsiella pneumoniae Y-1007 ([4]; Klebsiella pneumoniae Y-1007): < 0.06 µg/mL; Antibacterial activity (MIC) Pseudomonas aeruginosa S-2838 ([5]; Pseudomonas aeruginosa S-2838): 1 µg/mL; Antibacterial activity (MIC) Pseudomonas aeruginosa S-3028 ([6]; Pseudomonas aeruginosa S-3028): 0.5 µg/mL; Antibacterial activity (MIC) Pseudomonas aeruginosa S-3759 ([7]; Pseudomonas aeruginosa S-3759): 2 µg/mL; Antibacterial activity (MIC) Klebsiella pneumoniae Y-1062 ([8]; Klebsiella pneumoniae Y-1062): 0.5 µg/mL; Antibacterial activity (MIC) Pseudomonas aeruginosa ATCC 27853 [9, 10]: 2 µg/mL"
"CC(C)(O/N=C(\C(=O)N[C@@H]1C(=O)N2C[C@@](C(=O)O)(N3CCN(NC(=O)C(=O)c4ccc(O)c(O)c4Cl)C3=O)S[C@H]12)c1csc(N)n1)C(=O)O [Example 20, (3R,5R,6R)-6-((Z)-2-(2-aminothiazol-4-yl)-2-(((2-carboxypropan-2-yl)oxy)imino)acetamido)-3-(3-(2-(2-chloro-3,4-dihydroxyphenyl)-2-oxoacetamido)-2-oxoimidazolidin-1-yl)-7-oxo-4-thia-1-azabicyclo[3.2.0]heptane-3-carboxylic acid]",0.12 µg/mL,< 0.06 µg/mL,0.25 µg/mL,< 0.06 µg/mL,0.12 µg/mL,0.25 µg/mL,0.5 µg/mL,0.5 µg/mL,0.5 µg/mL,–
"CC(C)(O/N=C(\C(=O)N[C@@H]1C(=O)N2C[C@@](C(=O)O)(n3cc(CNC(=O)c4ccc(O)c(O)c4Cl)nn3)S[C@H]12)c1csc(N)n1)C(=O)O [Example 74, (3R,5R,6R)-6-((Z)-2-(2-aminothiazol-4-yl)-2-(((2-carboxypropan-2-yl)oxy)imino)acetamido)-3-(4-((2-chloro-3,4-dihydroxybenzamido)methyl)-1H-1,2,3-triazol-1-yl)-7-oxo-4-thia-1-azabicyclo[3.2.0]heptane-3-carboxylic acid]",2 µg/mL,1 µg/mL,1 µg/mL,0.25 µg/mL,0.25 µg/mL,0.5 µg/mL,1 µg/mL,4 µg/mL,0.5 µg/mL,–
"CC(C)(O/N=C(\C(=O)N[C@@H]1C(=O)N2C[C@@](C(=O)O)(N3CCCN(NC(=O)C(=O)c4ccc(O)c(O)c4Cl)C3=O)S[C@H]12)c1csc(N)n1)C(=O)O [Example 86, (3R,5R,6R)-6-((Z)-2-(2-aminothiazol-4-yl)-2-(((2-carboxypropan-2-yl)oxy)imino)acetamido)-3-(3(-2-(2-chloro-3,4-dihydroxyphenyl)-2-oxoacetamido)-2-oxotetrahydropyrimidin-1(2H)-yl)-7-oxo-4-thia-1-azabicyclo[3.2.0]heptane-3-carboxylic acid]",0.5 µg/mL,1 µg/mL,2 µg/mL,< 0.06 µg/mL,1 µg/mL,1 µg/mL,2 µg/mL,1 µg/mL,4 µg/mL,–
"Nc1nc(/C(=N/O[C@@H](CO)C(=O)O)C(=O)NC2C(=O)N3C[C@@](C(=O)O)(N4CCN(NC(=O)C(=O)c5ccc(O)c(O)c5Cl)C4=O)S[C@H]23)cs1 (stereo partly drawn) [Example 113, (3R,5R,6R)-6-((Z)-2-(2-aminothiazol-4-yl)-2-(((S)-1-carboxy-2-hydroxyethoxy)imino)-acetamido)-3-(3-(2-(2-chloro-3,4-dihydroxy-phenyl)-2-oxoaceta-mido)-2-oxoimidazol-idin-1-yl)-7-oxo-4-thia-1-azabicyclo[3.2.0]-heptane-3-carboxylic acid]",0.12 µg/mL,< 0.06 µg/mL,0.5 µg/mL,< 0.06 µg/mL,0.5 µg/mL,0.25 µg/mL,1 µg/mL,0.25 µg/mL,4 µg/mL,–
